Source: ChEMBL document CHEMBL1201862, “PubChem BioAssay data set” (2004)
Active and inactive are the calls of the source.

Columns and labels:
[1] = biological target: Heat shock protein HSP 90-alpha (Homo sapiens, UniProt P07900); assay type: functional, organism-based
[2] = biological target: T1, Carboxy-terminal domain RNA polymerase II polypeptide A small phosphatase 1 (Homo sapiens, UniProt Q9GZU7); experiment: inhibitors of CTDSP1, concentration-response testing, biochemical assay, absorbance-based, actives from ultra-high-throughput screening (AID 540297); assay type: functional
T1 sequence (Q9GZU7 whole entry): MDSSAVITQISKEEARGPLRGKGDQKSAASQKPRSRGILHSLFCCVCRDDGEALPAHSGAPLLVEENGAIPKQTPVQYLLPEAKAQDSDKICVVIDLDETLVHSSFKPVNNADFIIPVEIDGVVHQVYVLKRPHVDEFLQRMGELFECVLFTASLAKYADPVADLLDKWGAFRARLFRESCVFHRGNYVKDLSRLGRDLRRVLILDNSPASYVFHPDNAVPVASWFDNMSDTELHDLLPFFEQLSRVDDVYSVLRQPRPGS

[3] = biological target: T2, Replicative DNA helicase DnaB (Mycobacterium tuberculosis, UniProt P9WMR3); experiment: DnaB intein splicing inhibitors, dose response, biochemical, cell-free fluorescence (AID 449749); assay type: functional
T2 sequence (P9WMR3 whole entry): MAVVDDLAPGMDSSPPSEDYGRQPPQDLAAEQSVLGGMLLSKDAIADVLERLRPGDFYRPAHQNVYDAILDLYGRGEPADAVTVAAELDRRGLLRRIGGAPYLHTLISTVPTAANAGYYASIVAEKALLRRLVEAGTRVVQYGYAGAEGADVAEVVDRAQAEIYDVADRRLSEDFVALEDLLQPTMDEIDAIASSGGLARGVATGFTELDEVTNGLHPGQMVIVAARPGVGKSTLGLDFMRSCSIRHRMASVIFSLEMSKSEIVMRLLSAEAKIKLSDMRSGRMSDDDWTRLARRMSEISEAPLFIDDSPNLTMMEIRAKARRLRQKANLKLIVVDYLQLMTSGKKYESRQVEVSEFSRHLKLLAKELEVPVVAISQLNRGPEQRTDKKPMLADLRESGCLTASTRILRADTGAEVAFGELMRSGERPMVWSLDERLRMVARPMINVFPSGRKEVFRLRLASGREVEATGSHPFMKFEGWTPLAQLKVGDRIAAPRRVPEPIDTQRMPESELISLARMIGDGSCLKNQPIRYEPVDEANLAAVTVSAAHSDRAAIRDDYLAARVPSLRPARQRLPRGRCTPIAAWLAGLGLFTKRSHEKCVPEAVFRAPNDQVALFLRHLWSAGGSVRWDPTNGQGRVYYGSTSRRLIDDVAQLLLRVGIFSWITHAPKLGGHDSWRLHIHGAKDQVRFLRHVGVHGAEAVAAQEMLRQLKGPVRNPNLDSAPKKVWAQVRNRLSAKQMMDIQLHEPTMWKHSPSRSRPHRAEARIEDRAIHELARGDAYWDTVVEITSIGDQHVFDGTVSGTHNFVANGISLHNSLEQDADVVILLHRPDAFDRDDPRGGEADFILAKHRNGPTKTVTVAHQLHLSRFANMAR

[4] = biological target: T3, Heat shock factor protein 1 (Mus musculus, UniProt P38532); experiment: inhibition of MG132-induced HSE-luciferase signal, confirmation, cell-based, NIH3T3, luminescence, dose retest (AID 2382); assay type: functional;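 also: NIH3T3 fibroblasts with HSF1-driven luciferase reporter stressed by proteasome inhibitor MG132; luminescence from HSF1-driven luciferase expression after 8 hours of MG132 stress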
T3 sequence (P38532 whole entry): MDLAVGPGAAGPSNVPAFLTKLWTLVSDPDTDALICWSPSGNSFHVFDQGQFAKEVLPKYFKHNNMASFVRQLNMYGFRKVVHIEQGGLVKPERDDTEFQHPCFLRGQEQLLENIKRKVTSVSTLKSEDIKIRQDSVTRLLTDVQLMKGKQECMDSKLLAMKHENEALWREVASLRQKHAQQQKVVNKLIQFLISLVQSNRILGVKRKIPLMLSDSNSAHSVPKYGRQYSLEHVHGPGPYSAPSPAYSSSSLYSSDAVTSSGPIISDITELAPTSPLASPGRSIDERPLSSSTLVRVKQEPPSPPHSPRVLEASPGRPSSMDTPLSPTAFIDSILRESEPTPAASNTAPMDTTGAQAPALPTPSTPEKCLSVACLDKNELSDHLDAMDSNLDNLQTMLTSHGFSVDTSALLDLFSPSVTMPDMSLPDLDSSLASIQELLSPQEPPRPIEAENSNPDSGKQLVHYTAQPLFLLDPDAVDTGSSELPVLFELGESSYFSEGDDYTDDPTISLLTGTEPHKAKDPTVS

[5] = biological target: T4, Microphthalmia-associated transcription factor (Homo sapiens, UniProt O75030); experiment: TRPM1 promoter luciferase signal decrease, dose response, MITF inhibitor project, cell-based, SK-MEL-5, cherry-picked, set 3 (AID 493073); assay type: functional
T4 sequence (O75030 whole entry): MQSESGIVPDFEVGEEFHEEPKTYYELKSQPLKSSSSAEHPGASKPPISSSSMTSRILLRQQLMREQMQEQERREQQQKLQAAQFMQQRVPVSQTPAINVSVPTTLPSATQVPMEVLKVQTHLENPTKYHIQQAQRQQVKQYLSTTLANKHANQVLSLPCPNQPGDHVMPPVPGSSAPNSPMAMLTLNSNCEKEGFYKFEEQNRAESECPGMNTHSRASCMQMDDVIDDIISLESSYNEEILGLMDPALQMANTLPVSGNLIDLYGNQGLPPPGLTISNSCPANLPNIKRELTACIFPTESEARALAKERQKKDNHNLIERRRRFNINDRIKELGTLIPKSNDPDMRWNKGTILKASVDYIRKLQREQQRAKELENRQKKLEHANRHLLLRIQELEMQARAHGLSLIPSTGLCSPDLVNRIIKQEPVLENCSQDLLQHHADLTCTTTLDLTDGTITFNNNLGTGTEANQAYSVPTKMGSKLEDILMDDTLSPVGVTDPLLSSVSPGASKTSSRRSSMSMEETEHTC

[6] = C. albicans growth with fluconazole, confirmation, fluorescence, retest (AID 2467); assay type: functional, cell-based
[7] = inhibitors of intracellular T. cruzi replication, confirmation, NIH3T3 host cells, beta-gal luminescence (AID 2044); assay type: functional, cell-based;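 also: intracellular parasites grown in NIH/3T3 mouse fibroblasts as host cells; luminescent beta-galactosidase reporter signal from transgenic T. cruzi replicating inside host cells; inhibitors lower the luminescence signal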
[8] = NIH-3T3 fibroblast cytotoxicity, dose response, cytotoxicity control, cell-based, fluorescence, Alamar Blue, secondary assay (AID 2327); assay type: functional;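 also: NIH-3T3 mouse fibroblasts cultured with fluconazole at 8 µg/mL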
Protein RecA = biological target: T5, Protein RecA (Mycobacterium tuberculosis, UniProt P9WHJ3); experiment: Fluorescence Cell-Free Homogeneous Dose Retest to Identify Inhibitors of RecA-Intein Splicing Activity. [Related pubchem assays (depositor defined):AID2097, AID2223, AID489010, AID492950]; assay type: functional
T5 sequence (P9WHJ3 whole entry): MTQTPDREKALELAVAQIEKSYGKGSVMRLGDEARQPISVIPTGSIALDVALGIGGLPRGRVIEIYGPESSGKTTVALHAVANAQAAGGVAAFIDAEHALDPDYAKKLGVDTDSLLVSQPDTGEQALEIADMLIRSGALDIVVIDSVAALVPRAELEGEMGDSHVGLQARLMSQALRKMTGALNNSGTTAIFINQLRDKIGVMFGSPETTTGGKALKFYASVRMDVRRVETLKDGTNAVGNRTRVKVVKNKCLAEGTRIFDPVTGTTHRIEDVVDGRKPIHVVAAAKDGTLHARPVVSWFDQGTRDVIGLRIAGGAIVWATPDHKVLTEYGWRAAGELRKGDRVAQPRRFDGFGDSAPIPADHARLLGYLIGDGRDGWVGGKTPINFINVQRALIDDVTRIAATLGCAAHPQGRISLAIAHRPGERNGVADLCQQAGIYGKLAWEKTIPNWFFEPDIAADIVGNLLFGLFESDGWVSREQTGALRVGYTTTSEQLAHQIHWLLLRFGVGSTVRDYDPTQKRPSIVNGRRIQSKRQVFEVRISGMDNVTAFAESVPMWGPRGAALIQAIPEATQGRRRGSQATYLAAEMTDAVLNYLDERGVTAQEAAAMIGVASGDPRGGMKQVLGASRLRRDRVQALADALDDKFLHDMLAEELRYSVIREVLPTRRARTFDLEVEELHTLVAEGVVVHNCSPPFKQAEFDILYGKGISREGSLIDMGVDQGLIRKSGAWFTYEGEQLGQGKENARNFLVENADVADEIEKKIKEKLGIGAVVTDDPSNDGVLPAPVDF

[9] = cytotoxicity toward NIH3T3 fibroblasts, dose response, counter-screen, cell-based, ATP luminescence, mouse fibroblasts (AID 2010); assay type: functional;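 also: cells exposed to compound for about 90 hours before reading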
Large T antigen = Large T antigen (Simian virus 40, UniProt P03070); assay type: functional, Betapolyomavirus macacae;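 also: Confirmatory-stage PubChem screen for compounds that inhibit SV40 T antigen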
[10] = biological target: FAD-linked sulfhydryl oxidase ALR (Homo sapiens, UniProt P55789); experiment: inhibitors of human ALR sulfhydryl oxidase, dose response, biochemical, H2O2 detection, luminescence, cherry-pick (AID 493248)
P388/ADR = experiment: cells; assay type: functional; conditions: Mus musculus
P388 = experiment: cells; assay type: functional; conditions: Mus musculus
[11] = biological target: T6, Calpain-2 catalytic subunit (Sus scrofa, UniProt P43367); experiment: pig calpain II inhibitor potency, dose response, biochemical, fluorogenic peptide substrate (AID 1420); assay type: functional
T6 sequence (P43367 whole entry): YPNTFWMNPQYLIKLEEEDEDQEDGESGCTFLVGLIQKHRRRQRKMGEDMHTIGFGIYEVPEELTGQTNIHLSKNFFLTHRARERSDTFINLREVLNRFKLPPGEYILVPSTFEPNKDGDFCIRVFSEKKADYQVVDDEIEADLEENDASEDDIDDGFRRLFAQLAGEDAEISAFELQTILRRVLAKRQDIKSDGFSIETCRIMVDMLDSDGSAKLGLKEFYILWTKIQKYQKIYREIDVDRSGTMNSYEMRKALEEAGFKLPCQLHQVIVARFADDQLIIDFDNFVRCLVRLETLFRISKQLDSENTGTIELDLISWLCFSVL

Genome polyprotein = Genome polyprotein (dengue virus type 2, UniProt P29990); experiment: Dengue-2 NS5 methyltransferase inhibitors, primary screen, biochemical, confirmation dose response (AID 588689); assay type: functional
INS1 = experiment: beta cell apoptosis inhibitors, cytokine rescue, dose response, luminescence, retest (AID 449756); assay type: functional, cell-based; conditions: Rattus norvegicus;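 also: cell death triggered by IL-1 beta plus TNF-alpha plus IFN-gamma mixture; protective hits raise ATP signal compared with cytokine alone wells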
[12] = Luminescence Cell-Based Dose Retest to Confirm Inhibitors of Cancer Stem Cells. [Related pubchem assays (depositor defined):AID2717, AID2721]; assay type: functional; conditions: Homo sapiens

Chain of FAD-linked sulfhydryl oxidase ALR (P55789 whole entry): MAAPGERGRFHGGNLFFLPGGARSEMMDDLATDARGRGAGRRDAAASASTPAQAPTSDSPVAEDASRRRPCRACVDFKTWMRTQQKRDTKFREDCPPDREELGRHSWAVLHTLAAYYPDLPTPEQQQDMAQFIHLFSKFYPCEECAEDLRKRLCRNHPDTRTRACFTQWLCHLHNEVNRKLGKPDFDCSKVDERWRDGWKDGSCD
Chain of Large T antigen (P03070 whole entry): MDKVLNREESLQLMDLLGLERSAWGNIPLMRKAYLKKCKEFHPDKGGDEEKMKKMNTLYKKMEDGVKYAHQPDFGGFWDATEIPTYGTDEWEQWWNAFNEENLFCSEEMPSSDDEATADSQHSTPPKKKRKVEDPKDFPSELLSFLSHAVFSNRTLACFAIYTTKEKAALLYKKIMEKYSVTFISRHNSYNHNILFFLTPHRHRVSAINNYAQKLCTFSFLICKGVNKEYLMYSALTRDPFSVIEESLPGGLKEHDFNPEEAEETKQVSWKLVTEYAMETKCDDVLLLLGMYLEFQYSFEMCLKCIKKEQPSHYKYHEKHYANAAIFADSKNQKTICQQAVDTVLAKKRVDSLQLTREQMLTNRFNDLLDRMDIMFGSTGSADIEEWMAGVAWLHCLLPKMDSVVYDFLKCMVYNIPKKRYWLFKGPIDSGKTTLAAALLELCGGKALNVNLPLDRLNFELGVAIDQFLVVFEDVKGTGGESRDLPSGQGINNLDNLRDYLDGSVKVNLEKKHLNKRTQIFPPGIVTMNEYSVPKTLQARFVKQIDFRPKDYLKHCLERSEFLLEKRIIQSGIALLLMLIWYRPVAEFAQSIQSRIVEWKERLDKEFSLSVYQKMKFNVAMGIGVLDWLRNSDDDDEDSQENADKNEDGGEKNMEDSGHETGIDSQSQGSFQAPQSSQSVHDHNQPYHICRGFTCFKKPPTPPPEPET
Chain of Genome polyprotein (P29990 2492-3391 limits assumed): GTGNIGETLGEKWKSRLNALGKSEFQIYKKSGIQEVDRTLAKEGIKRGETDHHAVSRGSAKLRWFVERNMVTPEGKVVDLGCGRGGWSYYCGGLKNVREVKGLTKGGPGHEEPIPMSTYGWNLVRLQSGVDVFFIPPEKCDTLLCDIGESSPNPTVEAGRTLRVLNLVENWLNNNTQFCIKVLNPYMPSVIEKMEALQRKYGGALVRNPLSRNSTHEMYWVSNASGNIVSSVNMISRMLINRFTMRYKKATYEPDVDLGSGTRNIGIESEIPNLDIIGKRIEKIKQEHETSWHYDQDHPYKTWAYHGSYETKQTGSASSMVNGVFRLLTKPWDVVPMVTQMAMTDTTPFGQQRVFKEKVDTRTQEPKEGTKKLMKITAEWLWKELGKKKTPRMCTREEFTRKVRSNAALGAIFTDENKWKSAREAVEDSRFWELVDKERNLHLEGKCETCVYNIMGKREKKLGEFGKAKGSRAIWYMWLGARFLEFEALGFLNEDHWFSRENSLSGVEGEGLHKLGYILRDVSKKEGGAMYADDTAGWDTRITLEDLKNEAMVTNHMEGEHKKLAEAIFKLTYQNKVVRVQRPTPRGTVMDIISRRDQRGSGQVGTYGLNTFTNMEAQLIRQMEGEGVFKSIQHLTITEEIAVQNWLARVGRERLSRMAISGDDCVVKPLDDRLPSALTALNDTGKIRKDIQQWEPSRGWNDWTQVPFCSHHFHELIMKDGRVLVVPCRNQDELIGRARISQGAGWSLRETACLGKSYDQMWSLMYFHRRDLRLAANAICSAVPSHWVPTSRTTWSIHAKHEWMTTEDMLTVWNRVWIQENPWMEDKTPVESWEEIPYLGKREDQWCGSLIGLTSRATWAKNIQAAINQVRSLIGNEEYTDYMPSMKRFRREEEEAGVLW

In the case of `CCN(C(=O)C1CCCN(c2nc(-c3ccc(OC)cc3)no2)C1)c1ccc(OC)cc1` (centres undefined), the AC50 [1] is reported as 7.81 µM (active).

In the case of `CCCc1ccc(C(=O)NNC(=O)c2ccc(Br)cc2)cc1`, the IC50 [2] is reported as 5.88 µM (active).

For `O=C(CCl)Nc1ccc(-c2ccccc2)cc1`, the AC50 [3] was 20.5 µM (active), the EC50 [4] was 9.64 µM (active) and the AC50 [5] was 7.3 µM (active). For the same compound, the EC50 [6] was 1.77 µM (active), the EC50 [7] was 1.69 µM (active) and the EC50 [8] was 4.59 µM (inconclusive). For the same compound, the EC50 (Protein RecA) was 0.587 µM (active) and the EC50 [9] was < 6 µM (inconclusive).

With `O=S(=O)(c1c(F)cccc1F)N(CCc1ccc(F)cc1)C[C@@H](O)COCc1ccccc1` the AC50 [1] was 0.392 µM (active).

For `O=C(Nc1ccc(F)cc1)c1cccc(N2C(=O)c3ccccc3C2=O)c1`, the IC50 [2] was 11.1 µM (active).

For `COc1cccc(NC(S)=Nc2ccc(O)cc2)c1`, the IC50 (Large T antigen) was 5.64 µM (active).

In the case of `C/C(=N\NC(=O)CCCNc1cccc(C)c1)c1ccncc1`, the AC50 [10] is reported as 2.59 µM (active).

In the case of `C/C(=N\Nc1ccc(Cl)cc1)c1ccccn1`, the AC50 [10] is reported as 1.03 µM (active).

In the case of `O=C(O)C1Cc2c([nH]c3ccccc23)C=N1` (centres undefined), the GI50 (P388/ADR) is reported as > 100 µM (inactive) and the GI50 (P388) is reported as > 100 µM (inactive).

In the case of `C=C1c2cccc(OC)c2O[C@H](C(=O)OCC)[C@@H]1CC(CC)CCCC` (some centres undefined), the IC50 [2] is reported as 52.1 µM (active).

For `Oc1ccc(Br)cc1-c1cc(-c2ccco2)[nH]n1`, the AC50 [10] was 3.51 µM (active).

For `COc1cc(/C=N/NC(=O)c2ccc(Cn3cc([N+](=O)[O-])cn3)o2)cc(Br)c1O`, the IC50 (Large T antigen) was 24 µM (active).

With `Fc1ccc(CSc2nnc(-c3cnccn3)n2Cc2ccco2)cc1` the AC50 [10] was 3.85 µM (active).

With `CCC(C(C)N1CC(=O)NC(=O)C1)N1CC(=O)NC(=O)C1` (centres undefined) the GI50 (P388/ADR) was 6.12 µM (inactive) and the GI50 (P388) was < 0.0316 µM (active).

For `C(=C\c1ccccc1)/C=N/N1CCN(Cc2ccccc2)CC1`, the IC50 [11] was > 50 µM (not active).

In the case of `CCCCOc1ccc(CNC(=O)NS(=O)(=O)c2ccc(OCC(C)C)cc2)cc1`, the IC50 [2] is reported as 14.8 µM (active).

With `CCOc1cc(/C=N/Nc2ccc(C(=O)O)cc2)ccc1OC(=O)c1ccccc1C` the IC50 [11] was 5.07 µM (active).

For `O=C(O)c1cccc(NC(=O)c2cccc(NC(=O)C3CCCO3)c2)c1` (centres undefined), the AC50 [5] was 21.2 µM (active).

For `COc1ccc2cc3cc(C(=O)NCc4ccco4)oc3nc2c1`, the IC50 [2] was 10.1 µM (active).

For `COc1cc(/C=C2\SC(=S)N(CCCCC(=O)O)C2=O)ccc1OS(=O)(=O)c1ccc(C)cc1`, the IC50 [2] was 4.16 µM (active) and the IC50 (Genome polyprotein) was 39.8 µM (active).

In the case of `CCC(C)C(=O)N1CCc2cc(-c3csc(N)n3)ccc21` (centres undefined), the AC50 [10] is reported as 0.3 µM (active).

For `O=C(/C=C/c1ccccc1)CCN1CCCCC1`, the AC50 [1] was 3.9 µM (active).

In the case of `O=[N+]([O-])c1ccc(CSC2=NCCN2)cc1`, the AC50 [10] is reported as 0.04 µM (active).

With `Cc1cc(-c2nnc(S)n2/N=C/C(Cl)=C/c2ccccc2)[nH]n1` the AC50 [10] was 0.109 µM (active).

With `C[N+]1=C(/C=C/Nc2ccccc2Cl)C(C)(C)c2ccccc21` the IC50 [2] was 5.96 µM (active) and the AC50 (INS1) was 7.84 µM (active).

In the case of `CC(C)Oc1ccc(C(=O)/C=C2/C(=O)Nc3ccccc32)cc1`, the AC50 [1] is reported as 1.94 µM (active) and the AC50 [12] is reported as 4.39 µM (active).

In the case of `O=C1C2CCCCC2C(=O)N1c1ccc(NC2CCN(Cc3ccccc3)CC2)c([N+](=O)[O-])c1` (centres undefined), the IC50 [11] is reported as > 50 µM (not active).
